{
  "source": "patent US9823260B2",
  "about": "“Method to increase bioavailability of the delta-opioid receptor for management of pain and neuropsychiatric disorders” (priority 2014, dated 2017)",
  "key": {"[1]": {"system": "PC12 cells expressing SSF-DOR", "test": "Fixed cell immunofluorescence assay of DOR localization (intracellular/Golgi retention) in PC12 cells expressing SSF-DOR", "type": "cell-based, rat", "conditions": "for amount of cells exhibiting intracellular DOR (retention) after inhibitor alone / percentage of cells with internal localization of DOR within the Golgi region: no NGF; for amount of cells exhibiting intracellular DOR (retention) after inhibitor alone: Wortmannin 10 μM, Chelerythrine 5 μM, PP2 10 μM, Akt ½ kinase inhibitor 1 μM; for percentage of cells with internal localization of DOR within the Golgi region: PI3K inhibitor 10 μM alone", "description": "PC12 cells undergo neuronal specific signaling and differentiation in response to NGF.\nTo determine the mechanism regulating NGF-induced DOR retention, pharmacologic inhibition of known NGF-TrkA signaling molecules and quantification of the DOR localization via fixed cell immunofluorescence were employed. […]\nAlternatively, it was chosen to use the neuroendocrine PC12 cell line as the model system.\nTo confirm that the NGF-induced internal localization is retention and not only due to increased protein production in response to NGF, the mechanistic evaluation was continued in the presence of Cycloheximide (CHX, 3 μg/mL) to inhibit new protein synthesis. […] Again referring to FIG. 3, for the evaluation of required downstream signaling targets, pharmacologic inhibition of TrkA effectors was performed to determine the pathway required for NGF-induced retention of DOR.\nIt was therefore sought to determine if inhibition of PI3K via treatment with Wortmannin alone was sufficient to induce intracellular retention of DOR using a fixed cell immunofluorescence assay."}, "[2]": {"system": "DOR", "test": "cAMP EPAC FRET biosensor assay of DOR signaling in live PC12 cells", "type": "cell-based, rat"}, "[3]": {"system": "SSF-DOR expressing PC12 cells", "test": "Fluorescence antibody internalization assay of the surface pool of DOR", "type": "cell-based, rat", "conditions": "1-hour treatment; NGF 100 ng/mL, Wortmannin 10 μM, LY294002 10 μM, 740Y^PDGFR 25 μg/mL, DADLE 10 μM", "experimental": "To eliminate the possibility that surface localized DOR was being actively internalized following PI3K inhibition, a fluorescence antibody internalization assay was performed in combination with pharmacologic inhibition of PI3K. SSF-DOR expressing PC12 cells were incubated with a cell-impermeable primary M1-Alexa 647 conjugated antibody to label the surface pool of receptors. The cells were treated with pharmacologic agents for 1 hour as in previous experiments, and receptor internalization was determined by adding a cell-impermeable secondary Alexa-488 conjugated antibody that recognizes the M1 primary antibody. The amount of internalization is quantified using a Pearson's Correlation Coefficient to determine the colocalization of the primary and secondary antibodies."}, "[4]": {"system": "primary Trigeminal Ganglion (TG) neurons transfected with SSF-DOR", "test": "Fixed cell immunofluorescence of DOR localization in primary Trigeminal Ganglion neurons transfected with SSF-DOR", "type": "cell-based, mice", "description": "To begin the example, confirmation that SSF-DOR was internally retained and localized with the Golgi complex in primary Trigeminal Ganglion (TG) sensory neurons was desired. First, primary TGs from adult mice were isolated and cultured. The SSF-DOR DNA construct was then transiently transfected into cultured TGs for subsequent localization analysis. Using a fixed-cell immunofluorescence assay, the location of SSF-DOR with an Alexa-488 conjugated anti-Flag M1 antibody was visualized, and the receptor signal was compared to an antibody against the Golgi marker GPP130. […] PC12 cells expressing SSF-DOR have a membrane localized expression pattern with little to no Golgi colocalization when analyzed via fixed cell fluorescence confocal microscopy. […]\nBy using the neuroendocrine PC12 cell line as our model system, PTEN inhibition was identified as a tool to prevent the internal retention of DOR following NGF administration. […] Graphical quantification of the percentage of DOR localized within the Golgi compared to the total cell DOR fluorescence is shown in FIG. 9 (top), and the Pearson's Correlation Coefficient between the DOR fluorescence and the GPP130 Golgi fluorescence in FIG. 9 (bottom)."}, "[5]": {"system": "SSF-MOR expressed in PC12 cells", "test": "Fixed cell immunofluorescence assay of MOR localization in PC12 cells expressing SSF-MOR", "type": "cell-based, rat", "conditions": "1-hour; NGF 100 ng/mL, Wortmannin 10 μM, LY294002 10 μM", "experimental": "Previously, it was shown that the NGF-induced retention is specific to DOR and has minimal effect on MOR^37. It was therefore asked if retention of DOR via PI3K inhibition was also specific to DOR. To determine this specificity, the sufficiency of NGF, and PI3K inhibition by Wortmannin or LY294002, to promote intracellular retention of SSF-MOR expressed in PC12 cells was evaluated using the fixed cell immunofluorescence assay. Under basal no treatment conditions, SSF-MOR was prominently localized to the cell surface. Upon NGF (100 ng/mL), Wortmannin (10 μM), or LY294002 (10 μM) treatment for 1-hour, the majority of the SSF-MOR signal was localization to the cell surface with minimal overlap within the Golgi region."}, "[6]": {"conditions": "with NGF and CHX, Y-27632 5 μM, U0126 10 μM, Akt1/2 Kinase Inhibitor 500 nM, U73122 10 μM, Chelerythrine 10 μM, PP2 500 nM"}},
  "note": "Read-outs that look alike come from different tables or passages of the source.",
  "data": [
    {"compound": "O=C(NCc1c(F)cccc1F)c1sccc1OCc1ccc(Cl)cc1Cl", "note": "[AS1938909]", "values": [
      {"measurement": "DOR retention in combination with NGF versus NGF treatment alone", "setting": "[1]", "value": "not significantly different"},
      {"measurement": "percentage of cells exhibiting Golgi localized DOR and percentage of DOR fluorescence within the Golgi", "setting": "[1]; SHIP2 inhibitor AS1938909 10 μM only", "value": "significant increase"}
    ]},
    {"compound": "O=c1[nH]c2ccccc2n1C1CCN(Cc2ccc(-c3nc4cc5nc[nH]c5cc4nc3-c3ccccc3)cc2)CC1", "note": "[Akt1/2 Kinase Inhibitor]", "values": [
      {"measurement": "amount of cells exhibiting intracellular DOR (retention) after inhibitor alone", "setting": "[1]", "value": "did not significantly increase"},
      {"measurement": "effect on NGF-induced retention of DOR", "setting": "[1]; [6]", "value": "no statistical effect"}
    ]},
    {"compound": "C[C@@H]1C[C@@H]([C@H](O)CC2CC(=O)NC(=O)C2)C(=O)[C@@H](C)C1", "note": "[CHX, Cycloheximide]", "values": [
      {"measurement": "percentage of SSF-DOR expressing PC12 cells with internal localization of DOR", "setting": "[1]; CHX 3 μg/mL alone, 1 hour", "value": 16, "unit": "%"}
    ]},
    {"compound": "COc1ccc2c(c[n+](C)c3c4cc5c(cc4ccc23)OCO5)c1OC", "note": "[Chelerythrine]", "values": [
      {"measurement": "amount of cells exhibiting intracellular DOR (retention) after inhibitor alone", "setting": "[1]", "value": "did not significantly increase"},
      {"measurement": "effect on NGF-induced retention of DOR", "setting": "[1]; [6]", "value": "no statistical effect"}
    ]},
    {"compound": "CC(C)C[C@@H](NC(=O)[C@H](Cc1ccccc1)NC(=O)CNC(=O)[C@@H](C)NC(=O)[C@@H](N)Cc1ccc(O)cc1)C(=O)O", "note": "[DADLE]", "values": [
      {"measurement": "inhibition of Forskolin induced cAMP by DADLE", "setting": "[2]; 1 hour NGF pretreatment, Forskolin 5 μM, DADLE 10 μM", "value": 81, "unit": "%"},
      {"measurement": "colocalization of primary and secondary antibody (Pearson's Correlation Coefficient; internalization of surface DOR)", "setting": "[3]", "value": "minimal antibody colocalization"}
    ]},
    {"compound": "O=c1cc(N2CCOCC2)oc2c(-c3ccccc3)cccc12", "note": "[LY294002]", "values": [
      {"measurement": "percentage of cells with internal localization of DOR within the Golgi region", "setting": "[1]", "value": 88, "unit": "%"}
    ]},
    {"compound": "CC(C)(C)n1nc(-c2ccc(Cl)cc2)c2c(N)ncnc21", "note": "[PP2]", "values": [
      {"measurement": "amount of cells exhibiting intracellular DOR (retention) after inhibitor alone", "setting": "[1]", "value": "did not significantly increase"},
      {"measurement": "effect on NGF-induced retention of DOR", "setting": "[1]; [6]", "value": "no statistical effect"}
    ]},
    {"compound": "CC(C)(C)C(=O)Nc1ccc2c(c1)C(=O)C(=O)c1ccccc1-2", "note": "[SF1670]", "values": [
      {"measurement": "percentage of DOR fluorescence localized with the Golgi compared to the total DOR fluorescence", "setting": "[4]; SF1670 alone and in combination with NGF", "value": "decreased significantly"},
      {"measurement": "inhibition of cAMP upon DADLE treatment after CNA blockade and PTEN inhibition", "setting": "[2]; NGF pre-treatment, CNA blockade, SF1670 10 μM, Forskolin, DADLE", "value": 80, "unit": "%"},
      {"measurement": "increase of cAMP inhibition over that obtained after CNA alone", "setting": "[2]; SF1670 10 μM after CNA versus CNA alone", "value": 61, "unit": "%"},
      {"measurement": "effect of PTEN inhibitor on NGF-induced retention of DOR", "setting": "[1]; with NGF 100 ng/mL, bpV(HOptic) 10 μM", "value": "prevented NGF-induced retention of DOR in a dose dependent manner"}
    ]},
    {"compound": "N#CC(=C(/N)Sc1ccccc1N)/C(C#N)=C(\\N)Sc1ccccc1N", "note": "[U0126]", "values": [
      {"measurement": "effect on NGF-induced retention of DOR", "setting": "[1]", "value": "no statistical effect"}
    ]},
    {"compound": "COc1ccc2c(c1)CC[C@@H]1[C@@H]2CC[C@]2(C)[C@@H](NCCCCCCN3C(=O)C=CC3=O)CC[C@@H]12", "note": "[U73122]", "values": [
      {"measurement": "effect on NGF-induced retention of DOR", "setting": "[1]; [6]", "value": "no statistical effect"}
    ]},
    {"compound": "COC[C@H]1OC(=O)c2coc3c2[C@@]1(C)C1=C(C3=O)[C@@H]2CCC(=O)[C@@]2(C)C[C@H]1OC(C)=O", "note": "[Wortmannin]", "values": [
      {"measurement": "percentage of cells with internal localization of DOR", "setting": "[1]; NGF 100 ng/ml and Wortmannin 10 μM", "value": 87, "unit": "%"},
      {"measurement": "percentage of cells with internal localization of DOR within the Golgi region", "setting": "[1]", "value": 88, "unit": "%"},
      {"measurement": "percentage of cells with intracellular retention of DOR", "setting": "[1]; Wortmannin 10 μM in combination with NGF, 1-hour CHX chase", "value": 97, "unit": "%"}
    ]},
    {"compound": "C[C@@H](N)[C@H]1CC[C@H](C(=O)Nc2ccncc2)CC1", "note": "[Y-27632]", "values": [
      {"measurement": "effect on NGF-induced retention of DOR", "setting": "[1]; [6]", "value": "no statistical effect"}
    ]},
    {"compound": "NGF: Nerve Growth Factor; initiates internal retention of DOR in PC12 cells via TrkA", "values": [
      {"measurement": "colocalization between DOR and GPP130 Golgi marker (Pearson's Correlation Coefficient)", "setting": "[4]; NGF treatment", "value": "significant increase in colocalization"},
      {"measurement": "change in intracellular retention of MOR (percentage of cells with Golgi localized MOR and percentage of MOR fluorescence within the Golgi)", "setting": "[5]", "value": "non-significant change"},
      {"measurement": "colocalization of primary and secondary antibody (Pearson's Correlation Coefficient; internalization of surface DOR)", "setting": "[3]", "value": "very strong colocalization"},
      {"measurement": "percentage of cells with internal localization of DOR colocalized with the Golgi", "setting": "[1]; NGF 100 ng/mL, 1 hour (FIG. 3 right)", "value": 80, "unit": "%"},
      {"measurement": "percentage of transfected cells with internal localization of DOR", "setting": "[1]; NGF 100 ng/mL, 1 hour, no CHX", "value": 90, "unit": "%"},
      {"measurement": "percentage of cells imaged with internal localization of DOR", "setting": "[1]; NGF added 1 hour before CHX addition and chased for 1 hour", "value": 80, "unit": "%"}
    ]}
  ]
}
